# Test results from patent publication US20240226098A1, “COMPOUNDS AND METHODS FOR MODULATING SPLICING” (REMIX THERAPEUTICS INC., priority 2020, published 2024).
# Columns and labels:
# Format in all cases: cell-based
# [1] = test system: HTT mRNA, canonical junction (CJ); assay: Splicing assay (RT-qPCR): decrease in HTT canonical junction (CJ) mRNA; conditions: A673 or K562 cell line, 24 hours treatment, top dose 10 uM; concentration having 50% response in CJ decrease
# Experimental: (§1) Compounds described herein were used to modulate RNA transcript abundance in cells. The expression of a target mRNA was measured by detecting the formation of an exon-exon junction in the canonical transcript (CJ). A compound mediated exon-inclusion event was detected by observing an increase in formation of a new junction with an alternative exon (AJ). Real-time qPCR assays were used to detect these splicing switches and interrogate the potency of various compounds towards different target genes. A high-throughput real time quantitative PCR (RT-qPCR) assay was developed to measure these two isoforms of the mRNA (CJ and AJ) for an exemplary gene, HTT, together with a control housekeeping gene, GAPDH or GUSB or PPIA, used for normalization. Briefly, the A673 or K562 cell line was treated with various compounds described herein (e.g., compounds of Formula (I)). After treatment, the levels of the HTT mRNA targets were determined from each sample of cell lysate by cDNA synthesis followed by qPCR.
# (§2) • Cells-to-CT 1-step kit: ThermoFisher A25602, Cells-to-CT lysis reagent: ThermoFisher 4391851C, TaqMan™ Fast Virus 1-Step Master Mix: ThermoFisher 4444436 • GAPDH: VIC-PL, ThermoFisher 4326317E (Assay: Hs99999905_ml)—used for K562/suspension cell lines • GUSB: VIC-PL, ThermoFisher 4326320E (Assay: Hs99999908_ml)—used for K562/suspension cell lines • PPIA: VIC-PL, ThermoFisher 4326316E (Assay: Hs99999904_ml)—used for A673/adherent cell lines
# (§3) The A673 cell line was cultured in DMEM with 10% FBS. Cells were diluted with full growth media and plated in a 96-well plate (15,000 cells in 100 ul media per well). The plate was incubated at 37° C. with 5% CO2 for 24 hours to allow cells to adhere. An 11-point 3-fold serial dilution of the compounds was made in DMSO then diluted in media in an intermediate plate. Compounds were transferred from the intermediate plate to the cell plate with the top dose at a final concentration of 10 uM in the well. Final DMSO concentration was kept at or below 0.25%. The cell plate was returned to the incubator at 37° C. with 5% CO2 for an additional 24 hours.
# (§4) The K562 cell line was cultured in IMDM with 10% FBS. For K562, cells were diluted with full growth media and plated in either a 96-well plate (50,000 cells in 50 uL media per well) or a 384-well plate (8,000-40,000 cells in 45 uL media per well). An 11-point 3-fold serial dilution of the compounds were made in DMSO then diluted in media in an intermediate plate. Compound was transferred from the intermediate plate to the cell plate with the top dose at a final concentration of 10 uM in the well. Final DMSO concentration was kept at or below 0.25%. Final volume was 100 uL for 96-well plate and 50 uL for 384-well plate. The cell plate was then placed in an incubator at 37° C. with 5% CO2 for 24 hours.
# (§5) The cells were then gently washed with 50 uL-100 uL cold PBS before proceeding to addition of lysis buffer. 30 uL-50 uL of room temperature lysis buffer with DNAse I (and optionally RNAsin) was added to each well. Cells were shaken/mixed thoroughly at room temperature for 5-10 minutes for lysis to take place and then 3 uL-5 uL of room temperature stop solution was added and wells were shaken/mixed again. After 2-5 minutes, the cell lysate plate was transferred to ice for RT-qPCR reaction setup. The lysates could also be frozen at −80° C. for later use.
# (§6) In some cases, a direct lysis buffer was used. An appropriate volume of 3× lysis buffer (10 mM Tris, 150 mM NaCl, 1.5%-2.5% Igepal and 0.1-1 U/uL RNAsin, pH 7.4) was directly added to either K562 or A673 cells in media and mixed by pipetting 3 times. The plates were then incubated at room temperature with shaking/rocking for 20-50 minutes to allow for lysis to take place. After this time, the cell lysate plate was transferred to ice to set up for the RT-qPCR reactions. The lysates could also be frozen at −80° C. for later use. […]
# [2] = test system: SMN2 CJ mRNA; assay: Gene panel canonical junction qPCR assay: decrease in SMN2 CJ mRNA; conditions: protocol as for Table 2, read-out: SMN2 (IC50, decrease in CJ mRNA levels)
# Experimental: as §1, §3, §4, §5
# (§7) In some cases, a direct lysis buffer was used. An appropriate volume of 3× lysis buffer (10 mM Tris, 150 mM NaCl, 1.5%-2.5% Igepal and 0.1-1 U/uL RNAsin, pH 7.4) was directly added to either K562 or A673 cells in media and mixed by pipetting 3 times. The plates were then incubated at room temperature with shaking/rocking for 20-50 minutes to allow for lysis to take place. After this time, the cell lysate plate was transferred to ice to set up for the RT-qPCR reactions. The lysates could also be frozen at −80° C. for later use.
# (§8) To set up 10 uL RT-qPCR reactions, cell lysates were transferred to 384-well qPCR plates containing the master mix according to the table below. The plates were sealed, gently vortexed, and spun down before the run. The volumes were adjusted accordingly in some instances where the reaction was carried in 20 uL. The table below summarizes the components of the RT-qPCR reactions:
# (§9) The RT-qPCR reaction was performed using a QuantStudio (ThermoFisher) under the following fast cycling conditions. […]
# [3] = test system: Target C CJ mRNA; assay: Gene panel canonical junction qPCR assay: decrease in Target C CJ mRNA; conditions: protocol as for Table 2, read-out: Target C (IC50, decrease in CJ mRNA levels)
# Experimental: as §1, §3, §4, §5, §7, §8, §9
# [4] = test system: HTT CJ mRNA; assay: Gene panel canonical junction qPCR assay: decrease in HTT CJ mRNA; conditions: protocol as for Table 2, read-out: HTT (IC50, decrease in CJ mRNA levels)
# Experimental: as §1, §3, §4, §5, §7, §8, §9
# [5] = test system: HTT mRNA, alternative junction (AJ); assay: Splicing assay (RT-qPCR): increase in HTT alternative junction (AJ) mRNA; conditions: A673 or K562 cell line, 24 hours treatment, top dose 10 uM; concentration having 50% response in AJ increase
# Experimental: as §1, §2, §3, §4, §5, §6
SMILES,IC50 [2] [nM],IC50 [3] [nM],IC50 [4] [nM],AC50 [1] [nM],AC50 [5] [nM]
Cc1cn2cc(NC(=O)c3ccc(N4C[C@H]5CC[C@@H](C4)N5)c4ccnnc34)cc(F)c2n1 [Compound 108],< 100,100 to 1000,1000 to 10000,1000 to 10000,1000 to 10000
Cc1cn2nc(NC(=O)c3ccc(N4CCNCC4)c4ccnnc34)nc2c(C)n1 [Compound 122],1000 to 10000,1000 to 10000,1000 to 10000,1000 to 10000,1000 to 10000
"Cn1cc2ccc(NC(=O)c3ccc(N4CCNCC4)c4ccnnc34)cc2n1 [Compound 115, N-(2-methylindazol-6-yl)-5-(piperazin-1-yl) cinnoline-8-carboxamide]",> 10000,> 10000,> 10000,> 10000,> 10000
"Cc1cn2cc(NC(=O)c3ccc(N4CC5(CN(C)C5)C4)c4ccnnc34)cc(F)c2n1 [Compound 132, N-[8-fluoro-2-methylimidazo[1,2-a]pyridin-6-yl]-5-[6-methyl-2,6-diazaspiro[3.3]heptan-2-yl]cinnoline-8-carboxamide]",< 100,< 100,1000 to 10000,1000 to 10000,1000 to 10000
"Cc1cn2cc(NC(=O)c3ccc(N4CCNCC4)c4ccnnc34)cc(C)c2n1 [Compound 125, N-[2,8-dimethylimidazo[1,2-a]pyridin-6-yl]-5-(piperazin-1-yl)cinnoline-8-carboxamide]",< 100,1000 to 10000,1000 to 10000,1000 to 10000,1000 to 10000
"O=C(Nc1cn[nH]c1)c1ccc(N2CCNCC2)c2ccnnc12 [Compound 126, 5-(piperazin-1-yl)-N-(1H-pyrazol-4-yl)cinnoline-8-carboxamide]",> 10000,> 10000,> 10000,> 10000,> 10000
"Cc1cn2cc(NC(=O)c3ccc(N4CCNCC4)c4ccnnc34)cc(F)c2n1 [Compound 101, N-[8-fluoro-2-methylimidazo[1,2-a]pyridin-6-yl]-5-(piperazin-1-yl) cinnoline-8-carboxamide]",< 100,1000 to 10000,100 to 1000,100 to 1000,100 to 1000
"Cc1cn2cc(NC(=O)c3ccc(N4CCN(C)CC4)c4ccnnc34)cc(F)c2n1 [Compound 127, N-[8-fluoro-2-methylimidazo[1,2-a]pyridin-6-yl]-5-(4-methylpiperazin-1-yl) cinnoline-8-carboxamide]",< 100,1000 to 10000,1000 to 10000,1000 to 10000,1000 to 10000
"Cc1cn2cc(NC(=O)c3ccc(N4CCNCC4)c4ccnnc34)cc(Cl)c2n1 [Compound 124, N-[8-chloro-2-methylimidazo[1,2-a]pyridin-6-yl]-5-(piperazin-1-yl)cinnoline-8-carboxamide]",< 100,1000 to 10000,1000 to 10000,1000 to 10000,1000 to 10000
"Cc1nc2c(F)cc(NC(=O)c3ccc(N4CCNCC4)c4ccnnc34)cc2s1 [Compound 118, N-(4-fluoro-2-methyl-1,3-benzothiazol-6-yl)-5-(piperazin-1-yl) cinnoline-8-carboxamide]",< 100,100 to 1000,100 to 1000,100 to 1000,100 to 1000

# Second part, led by results:
IC50 [2] [nM],IC50 [3] [nM],IC50 [4] [nM],SMILES,AC50 [1] [nM],AC50 [5] [nM]
1000 to 10000,1000 to 10000,1000 to 10000,"Cc1cn2cc(NC(=O)c3ccc(N4C[C@H]5C[C@@H]4C5N(C)C)c4ccnnc34)cc(F)c2n1 (stereo partly drawn) [Compound 148, 5-[(1R,4R)-5-(dimethylamino)-2-azabicyclo [2.1.1]hexan-2-yl]-N-[8-fluoro-2-methylimidazo[1,2-a]pyridin-6-yl] cinnoline-8-carboxamide]",1000 to 10000,1000 to 10000
< 100,> 10000,100 to 1000,"Cc1cn2cc(NC(=O)c3ccc(N4CCNC(C)C4)c4ccnnc34)cc(F)c2n1 (stereo in doubt) [Compound 146, N-[8-fluoro-2-methylimidazo[1,2-a]pyridin-6-yl]-5-[(3S)-3-methylpiperazin-1-yl]cinnoline-8-carboxamide]",100 to 1000,100 to 1000
< 100,1000 to 10000,1000 to 10000,"Cc1cn2cc(NC(=O)c3ccc(N4CCC(NC(C)(C)C)CC4)c4ccnnc34)cc(F)c2n1 [Compound 138, 5-[4-(tert-butylamino)piperidin-1-yl]-N-[8-fluoro-2-methylimidazo[1,2-a]pyridin-6-yl]cinnoline-8-carboxamide]",1000 to 10000,1000 to 10000
100 to 1000,> 10000,> 10000,Cc1cn2cc(NC(=O)c3ccc(N4C[C@H]5C[C@@H]4C5N(C)C)c4ccnnc34)cc(F)c2n1 (stereo partly drawn) [Compound 155],> 10000,> 10000
< 100,> 10000,1000 to 10000,"CCC1CN(c2ccc(C(=O)Nc3cc(F)c4nc(C)cn4c3)c3nnccc23)CCN1 (stereo in doubt) [Compound 151, 5-[(3S)-3-ethylpiperazin-1-yl]-N-[8-fluoro-2-methylimidazo[1,2-a]pyridin-6-yl]cinnoline-8-carboxamide]",1000 to 10000,1000 to 10000
< 100,> 10000,1000 to 10000,"Cc1cn2cc(NC(=O)c3ccc(C4CCN(C)CC4)c4ccnnc34)cc(F)c2n1 [Compound 140, N-[8-fluoro-2-methylimidazo[1,2-a]pyridin-6-yl]-5-(1-methylpiperidin-4-yl) cinnoline-8-carboxamide]",1000 to 10000,1000 to 10000
< 100,1000 to 10000,1000 to 10000,"Cc1cn2cc(NC(=O)c3ccc(N4CCC(N5CCCC5)C4)c4ccnnc34)cc(F)c2n1 (stereo not drawn) [Compound 133, 5-[[1,3-bipyrrolidin]-1-yl]-N-[8-fluoro-2-methylimidazo[1,2-a]pyridin-6-yl]cinnoline-8-carboxamide]",1000 to 10000,1000 to 10000
< 100,1000 to 10000,100 to 1000,Cc1cc2c(N3CCNCC3)ccc(C(=O)Nc3cc(F)c4nc(C)cn4c3)c2nn1 [Compound 159],100 to 1000,100 to 1000
